Experimental data taken from US12138329B2, “Gel cleansing agent” (SHISEIDO HONEYCAKE INDUSTRIES CO., LTD., priority 2019, dated 2024).

Experiment: pH of 1% aqueous solution
Format: physicochemical
Conditions: polyoxyethylene alkyl ether carboxylate

pH of 1% aqueous solution, 60% neutralization (60% neutralization): about 5.7 | pH of 1% aqueous solution, 90% neutralization (90% neutralization): about 6.5 | pH of 1% aqueous solution, 100% neutralization (100% neutralization): about 7.8
Substance: NaOH
